Patent EP4563149A1, “LURBINECTEDIN, ECUBECTEDIN AND A RELATED COMPOUND FOR USE IN THE TREATMENT OF SKIN CANCERS” (Pharma Mar, S.A., priority 2023, dated 2025)
Read-outs that look alike come from different tables or passages of the source.

Legend:
[1] = system: 501mel^VemuR; assay: Cell viability assay (PrestoBlue), 72h; conditions: Homo sapiens
Method: (§6) Cells were grown at 37°C in 5% CO2 (10% for Hermes 3A) and were regularly checked for mycoplasma contamination. MM patient-derived short-term melanoma cultures (MM011, MM074, MM117, MM029, MM047, MM099) were grown in HAM-F10 (Gibco, Invitrogen) supplemented with 10% Fetal Calf Serum (FCS), 25 mM HEPES, 5.2 mM GLUTAMAX and penicillin-streptomycin. Melanoma cell lines 501mel and SKmel28 were grown in RPMI w/o HEPES (Gibco, Invitrogen) supplemented with 10% FCS and gentamycin. Vemurafenib-resistant cells (501melVemuR and MM074VemuR) were additionally supplemented with 1.5 µM of vemurafenib. Melanoma IGR cell lines (IGR37 and IGR39) were grown in RPMI w/o HEPES (Gibco, Invitrogen) supplemented with 15% FCS and gentamycin.
(§7) To determine the IC50 (half maximal inhibitory concentration) of these cells to various inhibitors, cell viability assays were performed.
(§8) After 72h of treatment with different concentrations of the compounds, cells were treated with PrestoBlue reagent according to the manufacturer's instructions. The absorbance per well was measured with a Cellinsight CX5 microplate reader. Data were analyzed using Prism9 statistical software.

[2] = system: 501mel, 501mel^VemuR or SKMEL28 melanoma cells; conditions: weekly IV 1.2mg/kg; for antitumor activity (tumor volumes) versus placebo-treated group: N=8/group; for overall survival: three CDX models
Method: To investigate the effects of the aforementioned tested drugs in living organisms, it was decided to examine the impact of PM14 and Compound IA on melanoma cell-derived xenograft (CDXs) mouse models. Human 501mel, 501mel^VemuR or SKMEL28 melanoma cells were subcutaneously implanted into the right flank of NSG mice.
Tumor volumes were monitored following weekly IV treatments of PM14 or Comp IA at a concentration of 1.2mg/kg. Treatments commenced (Day 0) when the tumors reached 150 mm^3 in female NSG mice aged 4 to 6 weeks (N=8/group).

[3] = system: melanoma cells 501mel; assay: Cell cycle analysis by flow cytometry (PI); format: cell-based, human; conditions: IC50 concentrations
Method: For cell cycle analysis, 2×10^6 cells were seeded in 6 well plates. […] After 2 washes with cold PBS, cells were incubated with RNAse A and PI for 1h in the dark, before being analyzed on a BD LSRFortessaTM Flow Cytometer. Data were analysed with FlowJo software.

[4] = system: MM074 melanospheres; assay: Melanosphere viability (CellTiterGlo); format: cell-based, human; conditions: 72h, doses equivalent to 5×IC50
Method: MM074 proliferative/differentiated cell line were seeded (5×10^4 cells) in ultra-low attachment hydrogel-layered 96 well plates in KO DMEM medium supplemented with 20% KSR, AANE, 2 mM Glutamax, Penicillin/Streptomycin and 100 uM Beta-mercaptoethanol. To allow for melanosphere formation, cells were left to grow for 4 days before drug treatment.
To analyze melanosphere viability after drug treatment, cells were treated with CellTiterGlo reagent (Promega) according to the manufacturer's instructions. Luminescence signals were measured with a Centro XS LB 960 microplate reader (Berthold).

[5] = system: melanoma cells; assay: Apoptosis by flow cytometry (AnnexinV-APC); format: cell-based, human; conditions: IC50 concentrations, Annexin V-APC
Method: After 48h of incubation, cells were rinsed and incubated with AnnexinV-APC (BD Biosciences). Cell proliferation and apoptosis were detected on a BD LSRFortessaTM Flow Cytometer. Data were analyzed with FlowJo software. To define slow proliferating or apoptotic cells: it was considered that slow proliferating cells represented the 30% of cells with the highest concentration of CellTrace Violet signal in the DMSO control. […] For apoptotic cells, it was considered the 20% of cells with the highest signal of AnnexinV-APC in the DMSO control.

[6] = system: MM047; assay: Cell viability assay (PrestoBlue), 72h; conditions: Homo sapiens
Method: (§9) Cells were grown at 37°C in 5% CO2 (10% for Hermes 3A) and were regularly checked for mycoplasma contamination. […] Melanoma IGR cell lines (IGR37 and IGR39) were grown in RPMI w/o HEPES (Gibco, Invitrogen) supplemented with 15% FCS and gentamycin.
as §7, §8

[7] = system: IGR-37 melanoma xenografts; conditions: 1.2 mg/kg intravenous
Method: (§1) Female athymic nu/nu mice (Harlan Laboratories Models, S.L. Barcelona, Spain or Envigo, Spain) were utilized for all experiments. Animal were housed in individually ventilated cages Sealsafe® Plus, Techmplast S.P.A.), up to ten per cage on a 12-hour light-dark cycle at 21-23 °C and 40-60 % humidity. Mice were allowed free access to irradiated standard rodent diet (Tecklad 2914C) and sterilized water. Animals were acclimated for at least 5 days prior to tumor implantation with a tumor cell suspension.
(§2) The cell line used are: • 501mel • IGR-37 • SK-Mel-28 • WM-266-4 • LOX-IMVI • 501mel^Vemur
(§3) In xenograft studies with cell lines: • Tumour volume was calculated using the equation […], where a: length (longest diameter) and b: width (shortest diameter) were measured in mm by using digital caliper (Fowler Sylvac, S235PAT). Tumour dimensions and body weights were recorded 2-3 times per week starting from the first day of treatment. • When tumors reached ca. 150-250 mm^3, tumour bearing animals (N = 8-10/group) were randomly allocated into the treatment groups, based on body weight and tumour measurements by using NewLab Oncology Software (version 2.25.06.00). • Comparison between median tumour volume of treated and placebo groups was used for evaluation of the antitumoural efficacy. • Animals were euthanized when their tumours reached ca. 1,500 mm^3 and/or severe necrosis was seen.
(§4) Treatments producing >20 % lethality and/or 20% net body weight loss were considered toxic.
(§5) In these experiments, PM14 and Compound IA, as well as placebo, were intravenously administered once per week for 3 consecutive weeks, on days 0, 7 and 14, whenever it was possible.
Table 5. Tumour volume evaluation in IGR-37 melanoma xenografts with PM14 and Compound IA and placebo.

[8] = system: IGR37; assay: Cell viability assay (PrestoBlue), 72h; conditions: Homo sapiens, IGR-37, 72 h
Method: (§10) Cells were grown at 37°C in 5% CO2 (10% for Hermes 3A) and were regularly checked for mycoplasma contamination. […] Melanoma cell lines 501mel and SKmel28 were grown in RPMI w/o HEPES (Gibco, Invitrogen) supplemented with 10% FCS and gentamycin. Vemurafenib-resistant cells (501melVemuR and MM074VemuR) were additionally supplemented with 1.5 µM of vemurafenib. Melanoma IGR cell lines (IGR37 and IGR39) were grown in RPMI w/o HEPES (Gibco, Invitrogen) supplemented with 15% FCS and gentamycin.
as §7, §8

[9] = system: xenografts with various melanoma cell lines; conditions: different xenografts, 1.2 mg/kg intravenous once per week for 3 weeks
Method: as §1, §2
as §3, with “seen. […]” for “seen.”

[10] = system: 501mel; assay: Cell viability assay (PrestoBlue), 72h; conditions: Homo sapiens
Method: as §10, §7, §8

[11] = system: MM029; assay: Cell viability assay (PrestoBlue), 72h; conditions: Homo sapiens
Method: as §9, §7, §8

[12] = system: MM011; assay: Cell viability assay (PrestoBlue), 72h; conditions: Homo sapiens
Method: as §10, §7, §8

[13] = system: MM074^VemuR; assay: Cell viability assay (PrestoBlue), 72h; conditions: Homo sapiens
Method: as §6, §7, §8

[14] = system: IGR37; assay: Cell viability assay (PrestoBlue), 72h, last line of Table 2; conditions: Homo sapiens, IGR-37, 72 h
Method: as §9, §7, §8

[15] = system: all melanoma cells; assay: Cell viability assay (PrestoBlue), summary over all melanoma cells; format: cell-based; conditions: Homo sapiens, read-out: IC50 values
[16] = system: WM-266-4 melanoma xenografts; conditions: 1.2 mg/kg intravenous
Method: as §1, §2, §3, §4, §5
Table 7. Tumour volume evaluation in WM-266-4 melanoma xenografts with PM14 and Compound IA and placebo.

COc1c(C)cc2c(c1O)[C@@H]1[C@@H]3[C@@H]4SC[C@]5(N[C@H](CO)Cc6c5oc5ccccc65)C(=O)OC[C@@H](c5c6c(c(C)c(OC(C)=O)c54)OCO6)N3[C@@H](O)[C@H](C2)N1C [Compound IA]
IC50 [1]: 2.13 nM | antitumor activity (tumor volumes) versus placebo-treated group [2]: statistically significant difference | overall survival [2]: significant increase | cell cycle progression [3]: notable blockade | cell viability in 3D culture [4]: significant cytotoxic effects | apoptosis [5]: induction of apoptosis | IC50 [6]: 1.38 nM | Median Tumour Volume ([7]; days 0, 7 and 14, day 0): 150 mm^3 | Median Tumour Volume ([7]; days 0, 7 and 14, day 2): 236.5 mm^3 | Median Tumour Volume ([7]; days 0, 7 and 14, day 4): 377.5 mm^3 | Median Tumour Volume ([7]; days 0, 7 and 14, day 7): 608 mm^3 | Median Tumour Volume ([7]; days 0, 7 and 14, day 9): 886.9 mm^3 | Median Tumour Volume ([7]; days 0, 7 and 14, day 14): 1,163.9 mm^3 | Median Tumour Volume ([7]; days 0, 7 and 14, day 16): 936.5 mm^3 | Median Tumour Volume ([7]; days 0, 7 and 14, day 18): 1,027.6 mm^3 | IC50 [8]: 1.48 nM | tumor volume compared to the placebo [9]: reduction of the volume tumor | IC50 [10]: 1.74 nM | IC50 [11]: 4.73 nM | IC50 [12]: 1.44 nM | IC50 [13]: 3.08 nM | IC50 [14]: 0.84 nM | IC50 [15]: 0.3 to 4.73 nM | Median Tumour Volume ([16]; days 0, 7 and 14, day 0): 169.5 mm^3 | Median Tumour Volume ([16]; days 0, 7 and 14, day 3): 109.8 mm^3 | Median Tumour Volume ([16]; days 0, 7 and 14, day 5): 100 mm^3 | Median Tumour Volume ([16]; days 0, 7 and 14, day 7): 104.4 mm^3 | Median Tumour Volume ([16]; days 0, 7 and 14, day 10): 97.8 mm^3 | Median Tumour Volume ([16]; days 0, 7 and 14, day 12): 89.2 mm^3 | Median Tumour Volume ([16]; days 0, 7 and 14, day 14): 94.9 mm^3 | Median Tumour Volume ([16]; days 0, 7 and 14, day 17): 68.8 mm^3 | Median Tumour Volume ([16]; days 0, 7 and 14, day 19): 75.7 mm^3 | Median Tumour Volume ([16]; days 0, 7 and 14, day 21): 95.2 mm^3 | Median Tumour Volume ([16]; days 0, 7 and 14, day 24): 75.7 mm^3 | Median Tumour Volume ([16]; days 0, 7 and 14, day 26): 96.7 mm^3 | Median Tumour Volume ([16]; days 0, 7 and 14, day 28): 99.4 mm^3 | Median Tumour Volume ([16]; days 0, 7 and 14, day 34): 134.3 mm^3 | Median Tumour Volume ([16]; days 0, 7 and 14, day 41): 275.2 mm^3 | Median Tumour Volume ([16]; days 0, 7 and 14, day 45): 312.1 mm^3 | Median Tumour Volume ([16]; days 0, 7 and 14, day 48): 461.7 mm^3 | Median Tumour Volume ([16]; days 0, 7 and 14, day 55): 749.7 mm^3 | Median Tumour Volume ([16]; days 0, 7 and 14, day 62): 985.3 mm^3 | Median Tumour Volume ([16]; days 0, 7 and 14, day 69): 1,145.3 mm^3

COc1c(C)cc2c(c1O)[C@@H]1[C@@H]3[C@@H]4SC[C@]5(N[C@H](CO)Cc6c5[nH]c5ccccc65)C(=O)OC[C@@H](c5c6c(c(C)c(OC(C)=O)c54)OCO6)N3[C@@H](O)[C@H](C2)N1C [PM14, ecubectedin]
IC50 [1]: 1.04 nM | antitumor activity (tumor volumes) versus placebo-treated group [2]: statistically significant difference | overall survival [2]: significant increase | cell cycle progression [3]: notable blockade | cell viability in 3D culture [4]: significant cytotoxic effects | apoptosis [5]: induction of apoptosis | IC50 [6]: 0.96 nM | Median Tumour Volume ([7]; days 0, 7 and 14, day 0): 150.4 mm^3 | Median Tumour Volume ([7]; days 0, 7 and 14, day 2): 216.6 mm^3 | Median Tumour Volume ([7]; days 0, 7 and 14, day 4): 326.3 mm^3 | Median Tumour Volume ([7]; days 0, 7 and 14, day 7): 544.5 mm^3 | Median Tumour Volume ([7]; days 0, 7 and 14, day 9): 704.9 mm^3 | Median Tumour Volume ([7]; days 0, 7 and 14, day 11): 821.6 mm^3 | Median Tumour Volume ([7]; days 0, 7 and 14, day 14): 1,127.4 mm^3 | Median Tumour Volume ([7]; days 0, 7 and 14, day 16): 1,351.7 mm^3 | Median Tumour Volume ([7]; days 0, 7 and 14, day 18): 1,594 mm^3 | IC50 [8]: 1.05 nM | tumor volume compared to the placebo [9]: reduction of the volume tumor | IC50 [10]: 1.25 nM | IC50 [11]: 1.4 nM | IC50 [12]: 1.07 nM | IC50 [13]: 1.63 nM | IC50 [14]: 0.78 nM | IC50 [15]: 0.3 to 4.73 nM | Median Tumour Volume ([16]; days 0, 7 and 14, day 0): 169.5 mm^3 | Median Tumour Volume ([16]; days 0, 7 and 14, day 3): 115.1 mm^3 | Median Tumour Volume ([16]; days 0, 7 and 14, day 5): 118.2 mm^3 | Median Tumour Volume ([16]; days 0, 7 and 14, day 7): 136.6 mm^3 | Median Tumour Volume ([16]; days 0, 7 and 14, day 10): 133.1 mm^3 | Median Tumour Volume ([16]; days 0, 7 and 14, day 12): 109.8 mm^3 | Median Tumour Volume ([16]; days 0, 7 and 14, day 14): 138.4 mm^3 | Median Tumour Volume ([16]; days 0, 7 and 14, day 17): 129.6 mm^3 | Median Tumour Volume ([16]; days 0, 7 and 14, day 19): 119.2 mm^3 | Median Tumour Volume ([16]; days 0, 7 and 14, day 21): 150.4 mm^3 | Median Tumour Volume ([16]; days 0, 7 and 14, day 24): 137.2 mm^3 | Median Tumour Volume ([16]; days 0, 7 and 14, day 26): 146.9 mm^3 | Median Tumour Volume ([16]; days 0, 7 and 14, day 28): 197.6 mm^3 | Median Tumour Volume ([16]; days 0, 7 and 14, day 34): 388.1 mm^3 | Median Tumour Volume ([16]; days 0, 7 and 14, day 41): 727.7 mm^3 | Median Tumour Volume ([16]; days 0, 7 and 14, day 45): 1,111.6 mm^3 | Median Tumour Volume ([16]; days 0, 7 and 14, day 48): 1,503.6 mm^3
